Assay results published in US8497278B2, “Imidazo[1,2-a]pyridine compounds” (priority 2008, dated 2013).

Key:
[1] = tested on: central benzodiazepine receptors; experiment: Central benzodiazepine receptor binding (test of Speth et al.); settings: 1000 nM of the compound
How it was run: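 Radioligand binding by the Speth et al. method. Specific binding is total minus nonspecific binding, the latter measured with excess unlabelled ligand. Compounds screened at 1.0E-09, 1.0E-07 and 1.0E-05 M in single determination; values given as percent inhibition at 1000 nM compound.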

Wistar rats = experiment: Vogel conflict test; assay type: in vivo; settings: rat, 60 min before test, 3 minute test
Protocol: Vogel Conflict Test Protocol: The Vogel conflict test is an animal model of anxiety described by Vogel et al. (1971). In this test, water deprived animals are placed in a cage with free access to a drinking bottle. Whenever the animal drinks, an electric shock is administered. Animals punished during drinking rapidly cease to drink. Anxiolytic drugs decrease the effect of punishment and increase the number of shocks accepted by the rats in this conflict situation. Male Wistar rats were used in these studies. Rats were deprived of water for approximately 48 hours and then placed individually into a transparent Plexiglas enclosure with a floor consisting of stainless steel bars spaced 1 cm apart. The back wall of the enclosure was made of opaque Plexiglas thereby concealing the observer from the experimental animal. In the center of the opposite wall, 5 cm above the floor, a metal water spout protruded into the cage and was connected to one pole of a shock generator. The other pole of the shock generator was connected to the metal grid floor. The rat is left to explore until it finds the water spout. Then, every time it drinks, it receives an electric shock (1.7 mA, 1 sec duration) 2 seconds after it starts drinking The number of punished drinks is counted during a 3 minute test. Ten rats are studied per treatment group. Clobazam (64 mg/kg) was used as the positive control. Compounds of the present invention, vehicle (45% hydroxypropyl beta-cyclodextrin) and clobazam were administered orally to all groups (n=10 […] per group) 60 minutes prior to behavioral testing. All data were analyzed using unpaired Student's t-tests. An effect was considered significance if p<0.05.

[2] = molecular target: T1, α5 subtype containing GABA-A receptors (Homo sapiens, UniProt P18507+P31644); experiment: Two-electrode voltage clamp electrophysiology in Xenopus oocytes, potentiation of GABA EC20 response, α5; assay type: cell-based; settings: 100 nM compound, read-out: Percentage of potentiation alpha5
T1 construct: expressed in transfected cells; host or cells: Xenopus laevis oocytes, cRNA injected
T1 sequence (P31644 32-462): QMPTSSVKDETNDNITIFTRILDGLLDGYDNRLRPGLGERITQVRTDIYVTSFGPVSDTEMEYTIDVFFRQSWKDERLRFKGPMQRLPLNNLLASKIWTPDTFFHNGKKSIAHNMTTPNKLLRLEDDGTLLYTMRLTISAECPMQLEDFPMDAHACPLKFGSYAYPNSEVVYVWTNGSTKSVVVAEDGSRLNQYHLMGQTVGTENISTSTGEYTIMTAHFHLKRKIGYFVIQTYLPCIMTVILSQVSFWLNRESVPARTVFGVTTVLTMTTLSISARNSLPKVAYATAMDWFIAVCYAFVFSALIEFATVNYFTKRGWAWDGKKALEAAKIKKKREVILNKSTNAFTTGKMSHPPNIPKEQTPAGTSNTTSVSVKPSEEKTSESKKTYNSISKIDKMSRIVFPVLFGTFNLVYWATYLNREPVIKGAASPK
T1 sequence (P28472 26-473 partner): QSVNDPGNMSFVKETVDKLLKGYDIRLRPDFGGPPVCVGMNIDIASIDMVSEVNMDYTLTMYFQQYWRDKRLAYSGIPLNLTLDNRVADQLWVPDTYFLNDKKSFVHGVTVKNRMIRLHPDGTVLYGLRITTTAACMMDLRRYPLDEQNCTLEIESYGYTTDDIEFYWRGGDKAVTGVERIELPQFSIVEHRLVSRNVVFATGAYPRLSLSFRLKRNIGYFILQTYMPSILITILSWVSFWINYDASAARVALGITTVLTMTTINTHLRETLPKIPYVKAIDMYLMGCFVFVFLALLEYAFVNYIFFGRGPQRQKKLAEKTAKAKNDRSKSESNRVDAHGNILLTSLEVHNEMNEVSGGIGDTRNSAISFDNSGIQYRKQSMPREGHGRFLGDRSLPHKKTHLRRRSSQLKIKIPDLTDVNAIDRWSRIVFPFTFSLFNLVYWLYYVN
T1 sequence (P18507 40-475): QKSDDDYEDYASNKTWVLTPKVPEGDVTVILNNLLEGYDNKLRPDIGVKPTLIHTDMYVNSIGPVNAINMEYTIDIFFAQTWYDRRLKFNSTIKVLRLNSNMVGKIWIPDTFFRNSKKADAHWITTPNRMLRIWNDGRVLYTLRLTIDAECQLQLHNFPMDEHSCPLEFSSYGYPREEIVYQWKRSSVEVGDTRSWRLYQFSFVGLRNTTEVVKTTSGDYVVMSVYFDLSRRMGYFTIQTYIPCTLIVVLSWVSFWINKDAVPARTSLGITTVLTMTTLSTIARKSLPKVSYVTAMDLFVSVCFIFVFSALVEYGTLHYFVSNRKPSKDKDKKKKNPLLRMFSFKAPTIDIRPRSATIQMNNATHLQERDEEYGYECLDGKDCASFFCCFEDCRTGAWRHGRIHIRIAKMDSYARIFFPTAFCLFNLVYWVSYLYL
How it was run: (§1)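 Human α1/α2/α3/α5 with β3 and γ2L subunits expressed in Xenopus oocytes from injected cRNA, clamped at −80 mV in ND96 (pH 7.5). After baseline responses to GABA at EC20 (60 μM), 1 μM chlordiazepoxide served as potentiation standard, then test compound at 100 nM; one compound per oocyte.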

[3] = molecular target: T2, α3 subtype containing GABA-A receptors (Homo sapiens, UniProt P18507+P34903); experiment: Two-electrode voltage clamp electrophysiology in Xenopus oocytes, potentiation of GABA EC20 response, α3; assay type: cell-based; settings: 100 nM compound, read-out: Percentage of potentiation alpha3
T2 construct: expressed in transfected cells; host or cells: Xenopus laevis oocytes, cRNA injected
T2 sequence (P34903 29-492): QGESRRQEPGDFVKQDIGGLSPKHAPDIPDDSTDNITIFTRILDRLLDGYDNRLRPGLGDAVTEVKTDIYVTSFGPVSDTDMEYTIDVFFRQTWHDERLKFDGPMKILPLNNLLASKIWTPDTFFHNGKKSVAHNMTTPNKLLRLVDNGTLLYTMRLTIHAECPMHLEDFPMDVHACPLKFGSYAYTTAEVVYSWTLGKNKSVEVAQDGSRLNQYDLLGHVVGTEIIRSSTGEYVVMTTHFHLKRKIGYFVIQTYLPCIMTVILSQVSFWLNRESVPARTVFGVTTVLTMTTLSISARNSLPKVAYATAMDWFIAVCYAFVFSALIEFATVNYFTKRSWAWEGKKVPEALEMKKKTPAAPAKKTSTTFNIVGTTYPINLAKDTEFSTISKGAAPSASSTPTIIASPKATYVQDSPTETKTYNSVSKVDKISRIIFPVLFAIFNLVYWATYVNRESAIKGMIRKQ
T2 sequence (P28472 26-473 partner): as the sequence (P28472 26-473 partner) above
T2 sequence (P18507 40-475): as the sequence (P18507 40-475) above
How it was run: as §1

Row | SMILES | % Inhibition at 1000 nM for CBZD [1] | Number of Shocks Mean ± S.E.M. (Wistar rats; 3 mg/kg PO) | Number of Shocks Mean ± S.E.M. (Wistar rats; 10 mg/kg PO) | Number of Shocks Mean ± S.E.M. (Wistar rats; 30 mg/kg PO) | activation at 0.1 µM [2] | activation at 0.1 µM [3]
1 | Cn1ncnc1Cc1c(-c2ccc(F)cc2)nc2ccc(F)cn12 [Compound 200, 6-fluoro-2-(4-fluorophenyl)-3-((1-methyl-1H-1,2,4-triazol-5-yl)methyl)imidazo[1,2-a]pyridine] | ++ (percentage of inhibition of central BZD site binding is greater than 80% in the presence of 1000 nM of the compound) | 8.4 ± 2.1 | 8.9 ± 2.3 | 9.5 ± 2.1 |  | 
2 | CNC(=O)c1nccn1Cc1c(-c2ccc(Cl)cc2)nc2ccccn12 [Compound 77, 1-((2-(4-chlorophenyl)H-imidazo[1,2-a]pyridin-3-yl)methyl)-N-methyl-1H-imidazole-2-carboxamide] | ++ (percentage of inhibition of central BZD site binding is greater than 80% in the presence of 1000 nM of the compound) |  |  |  |  | 
3 | Clc1ccc(-c2nc3cccnn3c2Cn2cncn2)cc1 [Compound 32, 3-((1H-1,2,4-triazol-1-yl)methyl)-2-(4-chlorophenyl)imidazo[1,2-b]pyridazine] | ++ (percentage of inhibition of central BZD site binding is greater than 80% in the presence of 1000 nM of the compound) | 3.8 ± 0.6 | 3.8 ± 0.7 | 6.6 ± 2.3 |  | 
4 | Clc1ccc(-c2nc3ccccn3c2Cc2ncn[nH]2)cc1 [Compound 211, 3-((1H-1,2,4-triazol-5-yl)methyl)-2-(4-chlorophenyl)imidazo[1,2-a]pyridine] |  | 3.9 ± 0.5 | 5.3 ± 0.8 | 5.0 ± 1.1 |  | 
5 | NC(=O)c1ncn(Cc2c(-c3ccc(Cl)cc3)nc3ccccn23)n1 [Compound 72, 1-((2-(4-chlorophenyl)imidazo[1,2-a]pyridin-3-yl)methyl)-1H-1,2,4-triazole-3-carboxamide] | ++ (percentage of inhibition of central BZD site binding is greater than 80% in the presence of 1000 nM of the compound) |  |  |  | -10 to 10% | 10 to 50%
6 | Cc1ccn(Cc2c(-c3ccc(Cl)cc3)nc3ccccn23)c(=O)n1 [Compound 105, 1-((2-(4-chlorophenyl)imidazo[1,2-a]pyridin-3-yl)methyl)-4-methylpyrimidin-2(1H)-one] |  | 5.1 ± 0.6 | 5.8 ± 0.8 | 8.2 ± 1.8 |  | 
